Tested on: C. elegans transcriptome
Experiment: Transcriptome profiling (Affymetrix microarrays), differentially expressed genes
Assay type: in vivo, Caenorhabditis elegans
Conditions: for Fold Change: downregulated genes
Procedure: To gain additional insight into the effect of LK molecules on C. elegans, young-adult, wild-type worms were treated with each drug at 100 µM for 8 h in the absence of pathogen. RNA was collected, and transcriptome profiling was performed.
Data were determined using Affymetrix microarrays, as described in Materials and Methods. Download Table S3, XLSX file, 0.07 MB.
Transcriptome profiling was performed on ∼6,000 wild-type, young adult worms incubated with either LK molecules or DMSO for 8 h. RNA isolation was performed using TRIzol extraction, followed by cleanup using RNeasy columns according to the manufacturer’s protocol. Each condition was analyzed in triplicate. Microarray data have been deposited in the GEO database, accession number GSE137516. […] Clustering and generation of the heat map was performed using Cluster 3.0 ([98]) and Treeview ([99]), respectively. Fold change of genes were normalized to average fold change of that gene over all clustered conditions. Genes and conditions were clustered using Euclidean distance and average linkages. […] Microarray data for non-LK molecules were collected from GEO omnibus. WormEXP was used as a secondary method for confirming statistical significance of potential pathways stimulated by each of the LK molecules ([100]). Gene ontologies were generated using DAVID ([101], [102]).

[1] = Downregulated genes, Affy_ID 171867_x_at
[2] = Downregulated genes, Affy_ID 176276_s_at

In the case of `CCN(CC)/N=N/c1ccc(C(=O)O)cc1` [LK35], the “Fold Change” value (Affy_ID 171811_s_at, listed under genes K01D12.7 (LK34, LK38), C57047 (LK35), K01D12.15 (LK38)) is reported as 0.292, the “Fold Change” value (Affy_ID 171867_x_at, listed under genes C09B9.6, F36H12.7, K07F5.1, R05F9.13, R13H9.2, R13H9.4, T13F2.10, T13F2.11, Y59E9AR.1, Y59E9AR.7, ZK354.1) is reported as 0.2025 and the “Fold Change” value (Affy_ID 171880_x_at, listed under genes C24D10.7 and C24D10.8) is reported as 0.4703. For the same molecule, the “Fold Change, gene Y59E9AR.1” value [1] was 0.2025, the “Fold Change, gene Y59E9AR.7” value [1] was 0.2025 and the “Fold Change, gene ZK354.1” value [1] was 0.2025. The “Fold Change, gene ZK354.10” value [1] was 0.2025, the “Fold Change, gene ZK354.11” value [1] was 0.2025 and the “Fold Change, gene ZK354.4” value [1] was 0.2025. The “Fold Change, gene ZK354.5” value [1] was 0.2025, the “Fold Change, gene ZK131.11” value (Downregulated genes, Affy_ID 171916_s_at) was 0.3792 and the “Fold Change, gene Y59H11AM.1” value (Downregulated genes, Affy_ID 172113_x_at) was 0.2252. For the same molecule, the “Fold Change, gene Y71H2AL.C” value (Downregulated genes, Affy_ID 172177_x_at) was 0.4472, the “Fold Change, gene ZK525.1” value (Downregulated genes, Affy_ID 172214_x_at) was 0.281 and the “Fold Change, gene T23B7.1” value (Downregulated genes, Affy_ID 172486_x_at) was 0.3276. For the same molecule, the “Fold Change, gene Y105C5A.13” value (Downregulated genes, Affy_ID 172627_x_at) was 0.07461, the “Fold Change, gene T28H11.6” value (Downregulated genes, Affy_ID 172704_x_at) was 0.2084 and the “Fold Change, gene ZK1248.4” value (Downregulated genes, Affy_ID 172734_x_at) was 0.2437. For the same molecule, the “Fold Change, gene ZK546.3” value (Downregulated genes, Affy_ID 172798_x_at) was 0.1152, the “Fold Change, gene ZK131.7” value (Downregulated genes, Affy_ID 172871_x_at) was 0.3252 and the “Fold Change, gene ZK1248.6” value (Downregulated genes, Affy_ID 172887_x_at) was 0.1434. For the same molecule, the “Fold Change, gene ZK546.6” value (Downregulated genes, Affy_ID 172900_x_at) was 0.1383, the “Fold Change, gene ZK1251.6” value (Downregulated genes, Affy_ID 172938_x_at) was 0.1992 and the “Fold Change, gene Y43F8B.2” value (Downregulated genes, Affy_ID 173326_s_at) was 0.3741. The “Fold Change, gene T27E4.7” value (Downregulated genes, Affy_ID 173756_at) was 0.207, the “Fold Change, gene Y54G2A.7” value (Downregulated genes, Affy_ID 174102_at) was 0.2822 and the “Fold Change, gene ZK809.8” value (Downregulated genes, Affy_ID 175557_at) was 0.3895. The “Fold Change, gene ZK112.1” value (Downregulated genes, Affy_ID 175995_at) was 0.2683, the “Fold Change, gene Y119D3B.13” value (Downregulated genes, Affy_ID 176131_at) was 0.2184 and the “Fold Change, gene Y69A2AR.12” value [2] was 0.2706. The “Fold Change, gene Y69A2AR.25” value [2] was 0.2706, the “Fold Change, gene Y71H2AM.13” value (Downregulated genes, Affy_ID 176285_s_at) was 0.4282 and the “Fold Change, gene Y71G12B.4” value (Downregulated genes, Affy_ID 176544_at) was 0.3363. The “Fold Change, gene Y54G2A.14” value (Downregulated genes, Affy_ID 177004_s_at) was 0.3979, the “Fold Change, gene Y73B6BL.24” value (Downregulated genes, Affy_ID 177183_s_at) was 0.3786 and the “Fold Change, gene Y71H2AL.1” value (Downregulated genes, Affy_ID 177190_at) was 0.2701. The “Fold Change, gene ZK669.2” value (Downregulated genes, Affy_ID 179491_at) was 0.1961, the “Fold Change, gene ZK550.2” value (Downregulated genes, Affy_ID 179513_at) was 0.2553 and the “Fold Change, gene T23F4.3” value (Downregulated genes, Affy_ID 179815_at) was 0.0609. The “Fold Change, gene Y51H4A.7” value (Downregulated genes, Affy_ID 180145_s_at) was 0.2617, the “Fold Change, gene T23F4.1” value (Downregulated genes, Affy_ID 180223_s_at) was 0.03953 and the “Fold Change, gene W04B5.2” value (Downregulated genes, Affy_ID 180561_at) was 0.4474. The “Fold Change, gene ZK484.5” value (Downregulated genes, Affy_ID 182193_at) was 0.3211, the “Fold Change, gene Y44A6C.1” value (Downregulated genes, Affy_ID 182843_at) was 0.3152 and the “Fold Change, gene Y45F10A.5” value (Downregulated genes, Affy_ID 184558_at) was 0.1919. The “Fold Change, gene T23B12.8” value (Downregulated genes, Affy_ID 184855_at) was 0.1557, the “Fold Change, gene Y105C5B.5” value (Downregulated genes, Affy_ID 185106_at) was 0.254 and the “Fold Change, gene W01A11.6” value (Downregulated genes, Affy_ID 186120_at) was 0.4275. The “Fold Change, gene T27A10.7” value (Downregulated genes, Affy_ID 186153_s_at) was 0.3382, the “Fold Change, gene Y18D10A.23” value (Downregulated genes, Affy_ID 186886_s_at) was 0.3476 and the “Fold Change, gene Y105C5A.24” value (Downregulated genes, Affy_ID 187121_at) was 0.3662. For the same molecule, the “Fold Change, gene ZC416.6” value (Downregulated genes, Affy_ID 188470_s_at) was 0.2458, the “Fold Change, gene T25C12.3” value (Downregulated genes, Affy_ID 188823_s_at) was 0.2936 and the “Fold Change, gene ZK593.1” value (Downregulated genes, Affy_ID 189095_at) was 0.3436. The “Fold Change, gene ZK484.2” value (Downregulated genes, Affy_ID 189882_at) was 0.286, the “Fold Change, gene ZK131.4” value (Downregulated genes, Affy_ID 190307_s_at) was 0.2791 and the “Fold Change, gene Y40D12A.2” value (Downregulated genes, Affy_ID 191017_at) was 0.3228. The “Fold Change, gene W07B8.5” value (Downregulated genes, Affy_ID 191887_s_at) was 0.2934, the “Fold Change, gene Y51A2D.13” value (Downregulated genes, Affy_ID 192992_at) was 0.2251 and the “Fold Change, gene Y69E1A.5” value (Downregulated genes, Affy_ID 193144_at) was 0.316. For the same molecule, the “Fold Change, gene Y111B2A.13” value (Downregulated genes, Affy_ID 193715_at) was 0.4867, the “Fold Change, gene Y48A6B.7” value (Downregulated genes, Affy_ID 193926_at) was 0.205 and the “Fold Change, gene ZK666.7” value (Downregulated genes, Affy_ID 194066_s_at) was 0.1175. For the same molecule, the “Fold Change” value (Gene AC3.7, Affy_ID 190879_at) was 0.1754, the “Fold Change” value (Gene B0035.13, Affy_ID 188123_at) was 0.2664 and the “Fold Change” value (Gene C02F5.7, Affy_ID 191772_at) was 0.3854. The “Fold Change” value (Gene C04G2.4, Affy_ID 172853_x_at) was 0.1724, the “Fold Change” value (Gene C05C10.4, Affy_ID 189921_at) was 0.2517 and the “Fold Change” value (Gene C05C12.3, Affy_ID 183355_s_at) was 0.2041. The “Fold Change” value (Gene C06A12.3, Affy_ID 183322_at) was 0.4777, the “Fold Change” value (Gene C06G3.5, Affy_ID 189941_at) was 0.4389 and the “Fold Change” value (Gene C08E3.1, Affy_ID 172309_x_at) was 0.09218. The “Fold Change” value (Gene C08E3.13, Affy_ID 172565_x_at) was 0.08084, the “Fold Change” value (Gene C08F11.13, Affy_ID 175229_at) was 0.2613 and the “Fold Change” value (Gene C14C6.2, Affy_ID 183566_at) was 0.2902. For the same molecule, the “Fold Change” value (Gene C17B7.2, Affy_ID 181325_s_at) was 0.2818, the “Fold Change” value (Gene C18G1.2, Affy_ID 191147_at) was 0.4346 and the “Fold Change” value (Gene C18H9.6, Affy_ID 187412_at) was 0.3068. The “Fold Change” value (Gene C24A3.6, Affy_ID 175541_at) was 0.3015 and the “Fold Change” value (Gene C27H5.4, Affy_ID 181334_s_at) was 0.3156.
